How the values were obtained:
Assay type in all cases: in vivo
[1] = system: barnyardgrass (Echinochloa crus-galli); assay: Test C flooded paddy test plant response; conditions: Flood, 250 g ai/ha; scale of 0 to 100 where 0 is no effect and 100 is complete control; 13 to 15 days
How it was run: (§1)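 Flooded-pot format, 3 cm water over soil maintained for the test duration; test compounds dispensed into the water at the 2-leaf stage. Greenhouse holding 13 to 15 days. Plants evaluated visually relative to untreated controls, 0 meaning no effect and 100 complete control.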

rice (Oryza sativa) = assay: Test C flooded paddy test plant response; conditions: Flood, 250 g ai/ha; scale of 0 to 100 where 0 is no effect and 100 is complete control; 13 to 15 days
How it was run: as §1

[2] = system: ducksalad (Heteranthera limosa); assay: Test C flooded paddy test plant response; conditions: Flood, 250 g ai/ha; scale of 0 to 100 where 0 is no effect and 100 is complete control; 13 to 15 days
How it was run: as §1

[3] = system: small-flower umbrella sedge (Cyperus difformis); assay: Test C flooded paddy test plant response; conditions: Flood, 250 g ai/ha; scale of 0 to 100 where 0 is no effect and 100 is complete control; 13 to 15 days
How it was run: as §1

[4] = system: barnyardgrass (Echinochloa crus-galli); assay: Test B pre-/postemergence plant response
How it was run: (§2)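 Greenhouse pots, loam/sand soil; compound formulated with surfactant in non-phytotoxic solvent. Preemergence soil spray and postemergence spray at 1–2 leaf stage run simultaneously. Visual injury, 0–100, about 10 days post-treatment.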

[5] = system: giant foxtail (Setaria faberii); assay: Test B pre-/postemergence plant response
How it was run: as §2

[6] = system: pigweed (Amaranthus retroflexus); assay: Test B pre-/postemergence plant response
How it was run: as §2

[7] = system: wheat (Triticum aestivum); assay: Test B pre-/postemergence plant response
How it was run: as §2

corn (Zea mays) = assay: Test B pre-/postemergence plant response
How it was run: as §2

[8] = system: oilseed rape (Brassica napus); assay: Test D pre-/postemergence plant response; conditions: Postemergence
How it was run: (§3)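 Preemergence: seeds in loam/sand blend treated with test chemicals in non-phytotoxic solvent with surfactant; postemergence: plants at 2–18 cm (1- to 4-leaf stage) in peat-based medium sprayed likewise. Greenhouse 13 to 15 days, then visual rating vs controls, 0 (no effect) to 100 (complete control).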

[9] = system: ragweed (common ragweed, Ambrosia elatior); assay: Test D pre-/postemergence plant response; conditions: Postemergence
How it was run: as §3

[10] = system: johnsongrass (Sorghum halepense); assay: Test D pre-/postemergence plant response; conditions: Postemergence; for Plant response rating, Johnsongrass: scale 0 to 100, 0 no effect, 100 complete control
How it was run: as §3

[11] = system: yellow nutsedge (Cyperus esculentus); assay: Test D pre-/postemergence plant response; conditions: Postemergence
How it was run: as §3

[12] = system: winter wheat (Triticum aestivum); assay: Test D pre-/postemergence plant response; conditions: Postemergence
How it was run: as §3

[13] = system: galium (catchweed bedstraw, Galium aparine); assay: Test D pre-/postemergence plant response; conditions: Postemergence; for Plant response rating, Galium: scale 0 to 100, 0 no effect, 100 complete control
How it was run: as §3

[14] = 31 g ai/ha, Preemergence, 0 to 100 scale where 0 is no effect and 100 is complete control
[15] = 125 g ai/ha, postemergence, 0 to 100 scale, 0 no effect, 100 complete control
[16] = Postemergence, 31 g ai/ha, 0 to 100 scale (0 no effect, 100 complete control)
[17] = Preemergence, 125 g ai/ha, 0 to 100 scale (0 no effect, 100 complete control)
[18] = 31 g ai/ha, scale 0 to 100 (0 no effect, 100 complete control)
[19] = 62 g ai/ha, scale 0 to 100, 0 no effect, 100 complete control
[20] = 125 g ai/ha, scale 0 to 100, 0 no effect, 100 complete control

## Fc1ccc(Oc2ncc(Cl)cn2)c(-c2cc(C(F)(Cl)Cl)on2)c1 [Compound 221]
[1]
  Barnyardgrass plant response rating: 0
Rice (Oryza sativa)
  Rice plant response rating: 0
[2]
  Ducksalad plant response rating: 100
[3]
  Sedge, Umbrella plant response rating: 95
[4]; [14]
  Plant response rating, Barnyardgrass: 20
[4]; [15]
  Plant response rating, Barnyardgrass: 90
[4]; [16]
  Plant response rating, Barnyardgrass: 10
[4]; [17]
  Barnyardgrass plant response rating: 90
[5]; [14]
  Plant response rating, Foxtail, Giant: 50
[5]; [15]
  Plant response rating, Foxtail, Giant: 90
[5]; [16]
  Plant response rating, Foxtail, Giant: 10
[5]; [17]
  Foxtail, Giant plant response rating: 90
[6]; [14]
  Plant response rating, Pigweed: 100
[6]; [15]
  Plant response rating, Pigweed: 90
[6]; [16]
  Plant response rating, Pigweed: 90
[6]; [17]
  Pigweed plant response rating: 100
[7]; [15]
  Plant response rating, Wheat: 30
[7]; [16]
  Plant response rating, Wheat: 20
Corn (Zea mays); [15]
  Plant response rating, Corn: 50
Corn (Zea mays); [16]
  Plant response rating, Corn: 20
[8]; 16 g ai/ha
  Plant response rating (scale 0 to 100), Oilseed Rape: 70
[8]; [18]
  Oilseed Rape plant response rating: 70
[8]; [19]
  Oilseed Rape plant response rating: 90
[8]; [20]
  Plant response rating, Oilseed Rape: 90
[9]; 16 g ai/ha
  Plant response rating (scale 0 to 100), Ragweed: 35
[9]; [18]
  Ragweed plant response rating: 50
[9]; [19]
  Ragweed plant response rating: 45
[9]; [20]
  Plant response rating, Ragweed: 75
[10]; 16 g ai/ha
  Plant response rating (scale 0 to 100), Johnsongrass: 0
[10]; [18]
  Johnsongrass plant response rating: 5
[10]; 62 g ai/ha
  Plant response rating, Johnsongrass: 15
[10]; 125 g ai/ha
  Plant response rating, Johnsongrass: 15
[11]; 16 g ai/ha
  Plant response rating (scale 0 to 100), Nutsedge, Yellow: 5
[11]; [18]
  Nutsedge, Yellow plant response rating: 5
[11]; [19]
  Nutsedge, Yellow plant response rating: 5
[11]; [20]
  Plant response rating, Nutsedge, Yellow: 10
[12]; 16 g ai/ha
  Plant response rating (scale 0 to 100), Wheat: 0
[12]; [18]
  Wheat plant response rating: 0
[12]; [19]
  Wheat plant response rating: 5
[12]; [20]
  Plant response rating, Wheat: 0
[13]; 16 g ai/ha
  Plant response rating (scale 0 to 100), Galium: 80
[13]; [18]
  Galium plant response rating: 80
[13]; 62 g ai/ha
  Plant response rating, Galium: 100
[13]; 125 g ai/ha
  Plant response rating, Galium: 100
